The source made the active and inactive calls. The calls are words filed in the database; no cut-off is given here.
How the values were obtained:
[1] = test system: Mycobacterium tuberculosis; assay: Antitubercular activity against Mycobacterium tuberculosis H37Rv at 12.5 ug/ml; type: functional
[2] = test system: Mycobacterium tuberculosis; assay: Antitubercular activity against Mycobacterium tuberculosis H37Rv at 6.25 ug/ml; type: functional
NCI60 = assay: Cytotoxicity against human NCI60 cells; type: functional, cell-based

CC(C)=CCC[C@H](C)[C@H]1CC[C@H](C)c2ccc(C)cc21 [EROGORGIAENE]
Activity [1]: 96%

CC(C)=CCC[C@H](C)[C@H]1CC[C@H](C)c2c1cc(C)c1ncoc21
Activity [1]: 66%

CC(C)=CCC[C@H](C)[C@H]1CC[C@H](C)c2cc(O)c(C)cc21
Activity [2]: 77%
Activity (NCI60): inactive

CC(C)=C[C@@H]1C[C@H](C)[C@H]2CC[C@H](C)c3c2c1c(C)c1ncoc31 [PSEUDOPTEROXAZOLE]
Activity [1]: 97%
